Results reported in PubChem BioAssay AID2060342 (Molecular Pharmacology Branch, DTP, NCI, 2025).

System: 171881-019-R-J1-PDC multicell spheroid viability
Assay: Anticancer human tumor 171881-019-R-J1-PDC patient-derived invasive breast carcinoma cell line growth inhibition [IpAb]
Details: for IC50: curve of first compound; for viability, T/C: stronger effect = lower value
Description: Combinatorial screen of targeted agents with ipatasertib and abemaciclib in multi-cell type tumor spheroids
A high-throughput screen of multi-cell type tumor spheroids was designed to identify active combinations of targeted small molecules and ipatasertib or abemaciclib. Complex spheroids include a stromal component modeled by human endothelial cells (HUVEC) and fibroblasts modeled by human mesenchymal stem cells (MSCs). The concentration ranges selected for each drug and investigational agent were based upon clinically achievable concentrations if the clinical Cmax of the agent was known.
Compounds. The drugs and investigational agents: ipatasertib (NSC767898), abemaciclib(NSC768073), selumetinib (NSC741078), trametinib (758246), adavosertib (NSC754352), everolimus (NSC733504), sapanisertib (NSC764658), vemurafenib (NSC761431), venetoclax (NSC766270), copanlisib (NSC809693), apelisib (NSC765974), palbociblib (NSC758247), vemurafenib (NSC761431), dabrafenib (NSC764134), ravoxertinib (NSC781343), BMS-387032 (NSC767048), sotorasib (NSC818433), talazoparib (NSC767125) and afursertib (NSC778305), were obtained from the National Cancer Institute (NCI) Developmental Therapeutics Program Chemical Repository. The FDA-approved anticancer drug set is available from the NCI Developmental Therapeutics Program. […] The stock solutions were prepared in dimethyl sulfoxide (DMSO, Sigma-Aldrich, St. Louis, MO, cat. D2650) at 800-fold the tested concentration and stored at -70 degrees C prior to their use. All drugs and investigational agents were tested over a range starting from a high concentration at or near the clinical Cmax and decreasing in half-log increments. If the clinical Cmax for an agent had not been determined, the highest concentration tested was 10 microM.
NCI60 Cell Culture. NCI60 cell lines were obtained from the NCI Developmental Therapeutics Program Tumor Repository. For each lot of cells, the Repository performed Applied Biosystems AmpFLSTR Identifiler testing with PCR amplification to confirm consistency with the published Identifier STR profile for each cell line. Cells were kept in continuous culture for no more than 20 passages. The optimal seeding densities for each of the cell lines at each time point assessed were determined prior to performing the concentration response studies. Briefly, the NCI60 human tumor lines were grown as monolayers in RPMI 1640 medium supplemented with 10% FBS and 2 mmol/L L-glutamine.
An additional 9 lines were from the NCI60 cell line panel including MDA-MB-231 breast carcinoma, MDA-MB-468 breast carcinoma, MCF7 breast carcinoma, Hs578T breast carcinoma, MALME-3M melanoma, SK-MEL-2 melanoma, SK-OV-3 ovarian carcinoma, DU-145 prostate carcinoma, PC-3 prostate carcinoma, all cell lines along with major genetic alterations are listed on Table 2. Pooled donor human umbilical vein endothelial cells (HUVEC, Lonza, cat. CC-2519) and human mesenchymal stem cells (hMSC, Lonza, cat. PT-2501) were purchased from Lonza (Walkersville, MD).
PDMR cell lines were grown in complete medium (DC medium): Dulbecco's modified Eagle's medium (DMEM)/F12 supplemented with 5% fetal bovine serum (FBS), 2 mM L-glutamine, 100 U/mL penicillin and 100 µg/ml streptomycin, 0.4 µg/ml hydrocortisone, 10 ng/ml epidermal growth factor (EGF) recombinant human protein, 24 µg/mL adenine, and 0.1 mg/mL primocin. During culture from frozen stock vials, PDMR cells were cultured in the same medium containing 10 µM Y-27632 (see Table 3). The PDCs were cultured in complete DMEM/F12 media without 10 microM Y-27632 dihydrochloride for at least two passages prior to the screen. The pooled donor HUVEC and hMSC were cultured in endothelial cell growth medium 2 (PromoCell, Heidelberg, Germany, cat. C-22011) and mesenchymal stem cell growth medium 2 (PromoCell, cat. C-28009), respectively. For all experiments, HUVEC and hMSC were used at passages </=5.
[…]

[1] = second compound 0.1 µM, first compound 0.0316 µM
[2] = second compound 0.1 µM, first compound 0.1 µM
[3] = second compound 0.1 µM, first compound 0.316 µM
[4] = second compound 0.1 µM, first compound 1 µM
[5] = second compound 0.1 µM, first compound 3.16 µM
[6] = second compound 0.1 µM, first compound 10 µM
[7] = second compound 0.316 µM, first compound 0.0316 µM
[8] = second compound 0.316 µM, first compound 0.1 µM
[9] = second compound 0.316 µM, first compound 0.316 µM
[10] = second compound 0.316 µM, first compound 1 µM
[11] = second compound 0.316 µM, first compound 3.16 µM
[12] = second compound 0.316 µM, first compound 10 µM
[13] = second compound 1 µM, first compound 0.0316 µM
[14] = second compound 1 µM, first compound 0.1 µM
[15] = second compound 1 µM, first compound 0.316 µM
[16] = second compound 1 µM, first compound 1 µM
[17] = second compound 1 µM, first compound 3.16 µM
[18] = second compound 1 µM, first compound 10 µM
[19] = second compound 3.16 µM, first compound 0.0316 µM
[20] = second compound 3.16 µM, first compound 0.1 µM
[21] = second compound 3.16 µM, first compound 0.316 µM
[22] = second compound 3.16 µM, first compound 1 µM
[23] = second compound 3.16 µM, first compound 3.16 µM
[24] = second compound 3.16 µM, first compound 10 µM
[25] = second compound 10 µM, first compound 0.0316 µM
[26] = second compound 10 µM, first compound 0.1 µM
[27] = second compound 10 µM, first compound 0.316 µM
[28] = second compound 10 µM, first compound 1 µM
[29] = second compound 10 µM, first compound 3.16 µM
[30] = second compound 10 µM, first compound 10 µM
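Also: spheroids exposed to the agents for seven days before readout.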

| Compound | IC50 (second compound 0.1 µM) | IC50 (second compound 0.316 µM) | IC50 (second compound 1 µM) | IC50 (second compound 3.16 µM) | IC50 (second compound 10 µM) | viability, T/C [1] | viability, T/C [2] | viability, T/C [3] | viability, T/C [4] | viability, T/C [5] | viability, T/C [6] | viability, T/C [7] | viability, T/C [8] | viability, T/C [9] | viability, T/C [13] | viability, T/C [14] | viability, T/C [19] | viability, T/C [20] | viability, T/C [25] | viability, T/C [26] | further results |
| --- | --- | --- | --- | --- | --- | --- | --- | --- | --- | --- | --- | --- | --- | --- | --- | --- | --- | --- | --- | --- | --- |
| C=CCn1c(=O)c2cnc(Nc3ccc(N4CCN(C)CC4)cc3)nc2n1-c1cccc(C(C)(C)O)n1 + CC(C)NCC(C(=O)N1CCN(c2ncnc3c2C(C)CC3O)CC1)c1ccc(Cl)cc1 | 727 nM | 354 nM | < 31.6 nM | < 31.6 nM | < 31.6 nM | 116% | 118% | 114% | 25.6% | 22.1% | 20.3% | 87.3% | 80.3% | 54% | 26.4% | 23.8% | 9.36% | 8.13% | 5.29% | 4.04% | viability, T/C [10]: 17.4%; viability, T/C [11]: 15.6%; viability, T/C [12]: 16.4%; viability, T/C [15]: 16.5%; viability, T/C [16]: 9.22%; viability, T/C [17]: 10.4%; viability, T/C [18]: 10.4%; viability, T/C [21]: 6.23%; viability, T/C [22]: 5.35%; viability, T/C [23]: 7.31%; viability, T/C [24]: 8.03%; viability, T/C [27]: 3.45%; viability, T/C [28]: 4.09%; viability, T/C [29]: 4.97%; viability, T/C [30]: 4.41% |
| CC(C)n1nc(-c2ccc3oc(N)nc3c2)c2c(N)ncnc21 + CC(C)NCC(C(=O)N1CCN(c2ncnc3c2C(C)CC3O)CC1)c1ccc(Cl)cc1 | 3.65 nM | 0.877 nM | < 0.316 nM | < 0.316 nM | < 0.316 nM | 2.88% | 2% |  |  |  |  | 1.96% | 1.7% |  | 1.26% | 1.29% | 1.09% | 0.93% | 0.84% | 1% | viability, T/C (second compound 0.1 µM, first compound 0.000316 µM): 116%; viability, T/C (second compound 0.1 µM, first compound 0.001 µM): 101%; viability, T/C (second compound 0.1 µM, first compound 0.00316 µM): 56.6%; viability, T/C (second compound 0.1 µM, first compound 0.01 µM): 11.2%; viability, T/C (second compound 0.316 µM, first compound 0.000316 µM): 69.3%; viability, T/C (second compound 0.316 µM, first compound 0.001 µM): 47.4%; viability, T/C (second compound 0.316 µM, first compound 0.00316 µM): 16.7%; viability, T/C (second compound 0.316 µM, first compound 0.01 µM): 3.76%; viability, T/C (second compound 1 µM, first compound 0.000316 µM): 20%; viability, T/C (second compound 1 µM, first compound 0.001 µM): 9.02%; viability, T/C (second compound 1 µM, first compound 0.00316 µM): 5.13%; viability, T/C (second compound 1 µM, first compound 0.01 µM): 2.23%; viability, T/C (second compound 3.16 µM, first compound 0.000316 µM): 8.5%; viability, T/C (second compound 3.16 µM, first compound 0.001 µM): 4.98%; viability, T/C (second compound 3.16 µM, first compound 0.00316 µM): 2.85%; viability, T/C (second compound 3.16 µM, first compound 0.01 µM): 1.62%; viability, T/C (second compound 10 µM, first compound 0.000316 µM): 5.26%; viability, T/C (second compound 10 µM, first compound 0.001 µM): 3.35%; viability, T/C (second compound 10 µM, first compound 0.00316 µM): 2.04%; viability, T/C (second compound 10 µM, first compound 0.01 µM): 1.47% |
| CC1(C)CCC(CN2CCN(c3ccc(C(=O)NS(=O)(=O)c4ccc(NCC5CCOCC5)c([N+](=O)[O-])c4)c(Oc4cnc5[nH]ccc5c4)c3)CC2)=C(c2ccc(Cl)cc2)C1 + CC(C)NCC(C(=O)N1CCN(c2ncnc3c2C(C)CC3O)CC1)c1ccc(Cl)cc1 | 5670 nM | 2840 nM | < 31.6 nM | < 31.6 nM | < 31.6 nM | 136% | 114% | 120% | 107% | 84.3% | 18.7% | 103% | 96.8% | 83.1% | 37.2% | 31.9% | 10.9% | 11.4% | 8.52% | 5.8% | viability, T/C [10]: 71.3%; viability, T/C [11]: 48.7%; viability, T/C [12]: 14.8%; viability, T/C [15]: 34.8%; viability, T/C [16]: 32.3%; viability, T/C [17]: 30.3%; viability, T/C [18]: 12.3%; viability, T/C [21]: 11.3%; viability, T/C [22]: 11.5%; viability, T/C [23]: 12.6%; viability, T/C [24]: 5.33%; viability, T/C [27]: 5.75%; viability, T/C [28]: 6.5%; viability, T/C [29]: 5.63%; viability, T/C [30]: 2.85% |
| CCCS(=O)(=O)Nc1ccc(F)c(C(=O)c2c[nH]c3ncc(-c4ccc(Cl)cc4)cc23)c1F + CC(C)NCC(C(=O)N1CCN(c2ncnc3c2C(C)CC3O)CC1)c1ccc(Cl)cc1 | > 10000 nM | > 10000 nM | < 31.6 nM | < 31.6 nM | < 31.6 nM | 112% | 128% | 110% | 111% | 112% | 90.8% | 90.3% | 91.5% | 92.5% | 36.9% | 39.9% | 12.8% | 13.4% | 7.7% | 7.32% | viability, T/C [10]: 97.8%; viability, T/C [11]: 110%; viability, T/C [12]: 100%; viability, T/C [15]: 38.9%; viability, T/C [16]: 41.4%; viability, T/C [17]: 47.2%; viability, T/C [18]: 53.7%; viability, T/C [21]: 14.2%; viability, T/C [22]: 14.5%; viability, T/C [23]: 21%; viability, T/C [24]: 24.1%; viability, T/C [27]: 8.04%; viability, T/C [28]: 8.61%; viability, T/C [29]: 10.4%; viability, T/C [30]: 11% |
